Reference: US20120003151A1, “METHOD FOR EARLY IMAGING OF ATHEROSCLEROSIS” (priority 2009, published 2012)

Assays:
folate receptor [1] = target: T1, folate receptor (Mus musculus, UniProt Q05685)
Method: (§1) EC20-^99mTc was prepared as described (Leamon et al., Bioconjug Chem, 2002, 13(6): 1200-10; incorporated herein by reference). Vials containing lyophilized EC20 were heated at 100° C. for 5 min, after which two mL of a 925 MBq/mL solution of sodium pertechnetate (Cardinal Health) was added and the vial was heated for an additional 15 min. After dilution with the desired volume of saline, mice were injected i.p. with either 400 μL of imaging agent (18.5 MBq, ˜250 nmoles/Kg of EC20) or the same volume of imaging agent supplemented with 100-fold molar excess of free folic acid (to compete for unoccupied folate receptors). Unbound EC20-^99mTc was allowed to clear from the tissues for a period of four hours prior to imaging.
To analyze the accumulation of EC20-^99mTc in mouse aortas and heart tissues, mice were euthanized and thoracic aortas excised. Radioactivities were counted for 2 min using a gamma-counter (Packard). Results are reported as % ID/g tissue.
In order to assess whether EC20-^99mTc is in fact targeting these regions of enhanced atherosclerosis, thoracic aortas and hearts were dissected, and accumulation of EC20-^99mTc in the resected tissues was quantitated by gamma counting.

folate receptor [2] = target: T1, folate receptor; assay: Autoradiography and histology of aortas after EC20-99mTc injection; format: in vivo, mice; set-up: from tissue; host or cells: atherosclerotic aortas / aorto-cardiac region of living apoE-/- mice (lesion macrophages)
Method: In order to image areas of accumulation of EC20-^99mTc in atherosclerotic aortas, apoE−/− mice on a normal or Western diet were injected with EC20-^99mTc, euthanized, and thoracic aortas were excised. […] For cross sections, aortic roots and arches were cut and embedded in Tissue-Tek® O.C.T.™ mounting medium and frozen in liquid nitrogen. Serial sections were cut with a Leica CM1800 cryostat and placed on polylysine coated microscope slides (Thermo Scientific). Either whole aortas or aortic arch cross sections (40 μm) were exposed to a phosphor screen for 18 hours at 4° C. The phosphor screen was read using a Typhoon phosphorimager (GE Healthcare) at a resolution of 50 microns. Aortic tissue sections (10 m thick) adjacent to those used for autoradiography were also used for histology. H&E staining was performed to visualize lesion morphology. H&E staining of the sections was performed as follows.
The slides were fixed for 10 minutes in zinc-buffered formalin. The slides were washed with distilled water. The slides were immersed in Gills-3 hematoxylin for 5 minutes. The slides were rinsed in distilled water and dipped twice in acidic ethanol. The slides were rinsed for 30 seconds with distilled water and for 3 minutes in tap water. The slides were transferred to alcoholic Eosin Y for 20 seconds. The slides were rinsed with water and dehydrated in 2 changes of 95% ethanol, 2 changes of 100% ethanol, and 2 changes of xylenes (3 minutes per change). Coverslips were mounted using Permount™ mounting medium and allowed to dry overnight. Slides were visualized with a light microscope (4× objective). In some cases, the percentage of lumen occlusion was analyzed using ImageJ software (National Institutes of Health).
Staining with the macrophage-specific monoclonal antibody (Mac-3/CD107b; eBioscience Inc.) was performed as follows. Aortic arch sections were fixed with zinc-buffered formalin for 10 min, and endogenous biotin and peroxidase activity were blocked. Sections were incubated with anti-mouse CD107b antibody (1:50 dilution) for 1 h, and after washing, incubated with goat anti-rat biotinylated antibody (KPL Protein Research Products) at a 1:500 dilution for 30 min. After washing, streptavidin-HRP (BD Pharmingen) was added for an additional 30 min. Slides were developed with diaminobenzidine substrate (BD Pharmingen) according to manufacturer's instructions. Negative control consisted of slides developed in the absence of primary antibody. An Olympus BH-2 microscope coupled with a CCD camera was used to obtain light photomicrographs. […]

folate receptor [3] = target: T1, folate receptor; assay: Radioimaging (gamma scintigraphy, ROI analysis) of EC20-99mTc in ApoE-/- mice; format: in vivo; set-up: from tissue; host or cells: atherosclerotic aortas / aorto-cardiac region of living apoE-/- mice (lesion macrophages)
Method: as §1

FR+ macrophages = assay: EC20-99mTc imaging after macrophage depletion with clodronate liposomes; format: in vivo; details: apoE-/- mice, 8 weeks Western diet, 4 mg clodronate/dose i.p. daily for 5 days
Method: PBS- and clodronate liposomes were synthesized as described (Buiting et al., J. Immunol. Methods, 1996, 192(1-2): 55-62; incorporated herein by reference). 86 mg egg phosphatidylcholine +8 mg cholesterol were dissolved in 1:1 chloroform:methanol. Solvent was evaporated using a rotoevaporator for 15 min, and the resulting film was rehydrated with PBS or a 0.6 M solution of clodronate (Sigma) in PBS for 2 hours. Resulting multi-lamellar vesicles were sonicated for 3 min and allowed to swell for 2 hours at 25° C. Liposomes were washed 3× with PBS by centrifugation at 100,000×g for 30 min and resuspended in 4 mL PBS. Liposomes were extruded 5× through both a 400 nm and 200 nm pore-size polycarbonate filter and stored at 4° C. until use. The resulting liposomes consisted of 7:1.3 molar ratio egg phosphatidylcholine:cholesterol, respectively. The efficiency of clodronate entrapment using this method was 7.8%.
For systemic elimination of macrophages, apoE−/− mice were fed a Western diet for a period of 8 weeks, after which 200 μL of PBS- or clodronate-liposomes (4 mg clodronate/dose) were injected i.p. daily for 5 days. After treatment, mice were injected i.p. with EC20-^99mTc and imaged, as described above.

T1 sequence (Q05685 21-227): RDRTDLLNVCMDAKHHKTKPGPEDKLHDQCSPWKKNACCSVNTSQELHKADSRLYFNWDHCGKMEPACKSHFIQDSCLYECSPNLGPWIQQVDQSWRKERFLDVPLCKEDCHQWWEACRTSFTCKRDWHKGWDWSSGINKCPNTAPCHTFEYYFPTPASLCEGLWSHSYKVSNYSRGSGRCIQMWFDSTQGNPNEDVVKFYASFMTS

Compound	decrease of EC20-99mTc retention in the aortas by competition with excess folic acid (folate receptor [1]; apoE-/- mice on Western diet, compared to non-competed controls)	accumulation in the aortas, higher on Western chow than normal diet (folate receptor [1]; apoE-/- mice, 25 weeks on diet, gamma counting)	EC20-99mTc uptake in hearts relative to aortas (folate receptor [1]; mouse, in vivo)	radioactivity in the aortic root and arch with 100-fold greater dose of free folic acid (folate receptor [2]; apoE-/- mice on Western diet, autoradiography)	correspondence of areas of high macrophage content and lesion formation with loci of elevated 99mTc emission (folate receptor [2]; apoE-/- mice, 25 weeks Western chow, serial sections: H&E, Mac-3, autoradiography)	uptake in the aortic root and arch by autoradiography, Western diet versus normal diet (folate receptor [2]; apoE-/- mice, whole aortas, phosphorimager)	signal intensity after pre-injection of 100-fold excess free folic acid (folate receptor [3]; apoE-/- mice on Western diet, 25 weeks, folic acid competition)	average increase in EC20-99mTc signal intensity in the aorto-cardiac region, Western diet compared to normal rodent chow (folate receptor [3]; apoE-/- mice, 25 weeks on diet, i.p., imaged after 4 h clearance)	reduction of EC20-99mTc uptake by clodronate-liposome treatment relative to PBS-containing liposomes (FR+ macrophages)	detectability of EC20 uptake in small, early, active atherosclerotic plaques (folate receptor [2]; ApoE-/- mice, Western Diet 0, 2, 12 or 26 weeks, H&E plaque size)
Nc1nc2ncc(CNc3ccc(C(=O)N[C@H](CCC(=O)NC[C@H](N)C(=O)N[C@@H](CC(=O)O)C(=O)N[C@@H](CS)C(=O)O)C(=O)O)cc3)nc2c(=O)[nH]1 [EC20-^99mTc, metal not drawn]	41%	~120%	threefold lower	significantly reduced	invariably corresponded	significantly greater uptake	reduced to near background levels	~70%	65%	–
Nc1nc2ncc(CNc3ccc(C(=O)N[C@H](CCC(=O)NC[C@H](N)C(=O)N[C@@H](CC(=O)O)C(=O)N[C@@H](CS)C(=O)O)C(=O)O)cc3)nc2c(=O)[nH]1 [EC20]	–	–	–	–	–	–	–	–	–	detectable
